System: HUMAN WHOLE BLOOD
Experiment: IC50 in human whole blood
Format: cell-based

Compound | IC50 [nM]
Cn1cnc2c(Nc3cc(N[C@@H]4CCCC[C@@H]4N)nnc3C(N)=O)cccc21 [Compound I-22, 6-((1R,2S)-2-aminocyclohexylamino)-4-(1-methyl-1H-benzo[d]imidazol-4-ylamino)pyridazine-3-carboxamide] | 21500
NC(=O)c1nnc(N[C@@H]2CCCC[C@@H]2N)cc1Nc1cccc(-n2nccn2)n1 [Compound I-23, 4-(6-(2H-1,2,3-triazol-2-yl)pyridin-2-ylamino)-6-((1R,2S)-2-aminocyclohexylamino)pyridazine-3-carboxamide] | 810
NC(=O)c1nnc(N[C@@H]2CCCC[C@@H]2N)cc1Nc1cccc(-n2cccn2)n1 [Compound I-33, 4-(6-(1H-pyrazol-1-yl)pyridin-2-ylamino)-6-((1R,2S)-2-aminocyclohexylamino)pyridazine-3-carboxamide] | 1420
CC(C)(C#N)c1cccc(Nc2cc(N[C@@H]3CCCC[C@@H]3N)nnc2C(N)=O)n1 [Compound I-36, 6-((1R,2S)-2-aminocyclohexylamino)-4-(6-(2-cyanopropan-2-yl)pyridin-2-ylamino)pyridazine-3-carboxamide] | 2090
CC(C)(O)c1cccc(Nc2cc(N[C@@H]3CCCC[C@@H]3N)nnc2C(N)=O)n1 [Compound I-37, 6-((1R,2S)-2-aminocyclohexylamino)-4-(6-(2-hydroxypropan-2-yl)pyridin-2-ylamino)pyridazine-3-carboxamide] | 2340
CCCc1cc(C)cc(Nc2cc(N[C@@H]3CCCC[C@@H]3N)nnc2C(N)=O)n1 [Compound I-38, 6-((1R,2S)-2-aminocyclohexylamino)-4-(4-methyl-6-propylpyridin-2-ylamino)pyridazine-3-carboxamide] | 642

Second part, the compound after the results:

IC50 [nM] | Compound
313 | Cc1ccc(Nc2cc(N[C@@H]3CCOC[C@@H]3N)nnc2C(N)=O)nc1C(C)C [Compound I-27, 6-((3R,4R)-3-Amino-tetrahydro-pyran-4-ylamino)-4-(6-isopropyl-5-methyl-pyridin-2-ylamino)-pyridazine-3-carboxylic acid amide]
1800 | CC(C)(C)c1cccc(Nc2cc(N[C@@H]3CCOC[C@@H]3N)nnc2C(N)=O)n1 [Compound I-29, 6-((3R,4R)-3-aminotetrahydro-2H-pyran-4-ylamino)-4-(6-tert-butylpyridin-2-ylamino)pyridazine-3-carboxamide]
487 | CCOc1cccc(Nc2cc(N[C@@H]3CCCC[C@@H]3N)nnc2C(N)=O)n1 [Compound I-30, 6-((1R,2S)-2-aminocyclohexylamino)-4-(6-ethoxypyridin-2-ylamino)pyridazine-3-carboxamide]
923 | Cc1cc(Nc2cc(N[C@@H]3CCCC[C@@H]3N)nnc2C(N)=O)nc(C(C)C)c1 [Compound I-35, 6-((1R,2S)-2-aminocyclohexylamino)-4-(6-isopropyl-4-methylpyridin-2-ylamino)pyridazine-3-carboxamide]
818 | CCCc1cc(C)cc(Nc2cc(N[C@@H]3CCOC[C@@H]3N)nnc2C(N)=O)n1 [Compound I-39, 6-((3R,4R)-3-aminotetrahydro-2H-pyran-4-ylamino)-4-(4-methyl-6-propylpyridin-2-ylamino)pyridazine-3-carboxamide]
332 | CCCc1nc(Nc2cc(N[C@@H]3CCOC[C@@H]3N)nnc2C(N)=O)ccc1OC [Compound I-40, 6-((3R,4R)-3-aminotetrahydro-2H-pyran-4-ylamino)-4-(5-methoxy-6-propylpyridin-2-ylamino)pyridazine-3-carboxamide]
909 | COc1nc(Nc2cc(N[C@@H]3CCOC[C@@H]3N)nnc2C(N)=O)ccc1C(C)C [Compound I-42, 6-((3R,4R)-3-aminotetrahydro-2H-pyran-4-ylamino)-4-(5-isopropyl-6-methoxypyridin-2-ylamino)pyridazine-3-carboxamide]
372 | CC(C)Oc1cccc(Nc2cc(N[C@@H]3CCOC[C@@H]3N)nnc2C(N)=O)n1 [Compound I-43, 6-((3R,4R)-3-aminotetrahydro-2H-pyran-4-ylamino)-4-(6-isopropoxypyridin-2-ylamino)pyridazine-3-carboxamide]

— patent US8901124B2, “Pyridazine amide compounds useful as SYK inhibitors” (priority 2012, dated 2014)
